Test results: US8163793B2, “Proline derivatives” (Hoffman-La Roche Inc., priority 2009, dated 2012)

How the values were obtained:
Cat L = Cat L (UniProt P07711); assay: Cathepsin enzyme inhibition assay (fluorogenic peptide substrate Z-Val-Val-Arg-AMC), Cathepsin L; format: biochemical, human and mouse; conditions: enzyme 1 nM, substrate 20 μM, pH 6.5; read-out: CatL IC50
How it was run: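 Cathepsin L at 1 nM was mixed with compound, then started with 20 μM Z-Val-Val-Arg-AMC in pH 6.5 potassium phosphate with EDTA, Triton X-100 and 5 mM DTT. AMC fluorescence (ex 360/em 465 nm) was followed over 20 min. IC50 is given in μM.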

Cathepsin S = Cathepsin S (UniProt P25774); assay: Cathepsin enzyme inhibition assay (fluorogenic peptide substrate Z-Val-Val-Arg-AMC), Cathepsin S; format: biochemical, human and mouse; conditions: enzyme 1 nM, substrate 20 μM, pH 6.5; read-out: CatS IC50
How it was run: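 Human or mouse cathepsin S (1 nM) was run in 100 mM potassium phosphate pH 6.5 with 5 mM EDTA, 0.001% Triton X-100 and 5 mM DTT. The rise in AMC fluorescence from cleavage was measured, and IC50 values were calculated by standard methods and expressed in μM.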

Compound | IC50 (Cat L) [µM] | IC50 (Cathepsin S) [µM]
CN1C[C@H](S(=O)(=O)c2ccccc2Cl)C[C@H]1C(=O)NC1(C#N)CC1 [Example 93, (2S,4R)-4-(2-Chloro-benzenesulfonyl)-1-methyl-pyrrolidine-2-carboxylic acid (1-cyano-cyclopropyl)-amide] | ≥ 25 | 0.966
CN1C[C@H](S(=O)(=O)c2ccccc2Cl)C[C@H]1C(=O)N(C)C1(C#N)CC1 [Example 94, (2S,4R)-4-(2-Chloro-benzenesulfonyl)-1-methyl-pyrrolidine-2-carboxylic acid (1-cyano-cyclopropyl)-methyl-amide Formiate] | 40 | 0.945
COC(=O)N1C[C@H](S(=O)(=O)c2ccccc2Cl)C[C@H]1C(=O)NC1(C#N)CC1 [Example 95, (2S,4R)-4-(2-Chloro-benzenesulfonyl)-2-(1-cyano-cyclopropylcarbamoyl)-pyrrolidine-1-carboxylic acid methyl ester] | ≥ 25 | 0.0076
CCOC(=O)N1C[C@H](S(=O)(=O)c2ccccc2Cl)C[C@H]1C(=O)NC1(C#N)CC1 [Example 96, (2S,4R)-4-(2-Chloro-benzenesulfonyl)-2-(1-cyano-cyclopropylcarbamoyl)-pyrrolidine-1-carboxylic acid ethyl ester] | 31.5 | 0.0026
CC(C)OC(=O)N1C[C@H](S(=O)(=O)c2ccccc2Cl)C[C@H]1C(=O)NC1(C#N)CC1 [Example 97, (2S,4R)-4-(2-Chloro-benzenesulfonyl)-2-(1-cyano-cyclopropylcarbamoyl)-pyrrolidine-1-carboxylic acid Isopropyl Ester] | 22.8 | 0.0024
N#CC1(NC(=O)[C@@H]2C[C@@H](S(=O)(=O)c3ccccc3Cl)CN2C(=O)OC2CCCC2)CC1 [Example 98, (2S,4R)-4-(2-Chloro-benzenesulfonyl)-2-(1-cyano-cyclopropylcarbamoyl)-pyrrolidine-1-carboxylic acid Cyclopentyl Ester] | 15.7 | 0.0011
N#CC1(NC(=O)[C@@H]2C[C@@H](S(=O)(=O)c3ccccc3Cl)CN2C(=O)Oc2ccc(F)cc2)CC1 [Example 99, (2S,4R)-4-(2-Chloro-benzenesulfonyl)-2-(1-cyano-cyclopropylcarbamoyl)-pyrrolidine-1-carboxylic acid 4-fluoro-phenyl Ester] | ≥ 25 | 0.0026
N#CC1(NC(=O)[C@@H]2C[C@@H](S(=O)(=O)c3ccccc3C(F)(F)F)CN2C=O)CC1 [Example 100, (2S,4R)-1-Formyl-4-(2-trifluoromethyl-benzenesulfonyl)-pyrrolidine-2-carboxylic acid (1-cyano-cyclopropyl)-amide] | ≥ 25 | 0.0077
CC(=O)N1C[C@H](S(=O)(=O)c2ccccc2C(F)(F)F)C[C@H]1C(=O)NC1(C#N)CC1 [Example 101, (2S,4R)-1-Acetyl-4-(2-trifluoromethyl-benzenesulfonyl)-pyrrolidine-2-carboxylic acid (1-cyano-cyclopropyl)-amide] | ≥ 25 | 0.0067
N#CC1(NC(=O)[C@@H]2C[C@@H](S(=O)(=O)c3ccccc3C(F)(F)F)CN2C(=O)C(F)(F)F)CC1 [Example 102, (2S,4R)-1-(2,2,2-Trifluoro-acetyl)-4-(2-trifluoromethyl-benzenesulfonyl)-pyrrolidine-2-carboxylic acid (1-cyano-cyclopropyl)-amide] | ≥ 25 | 0.0036
CCC(=O)N1C[C@H](S(=O)(=O)c2ccccc2C(F)(F)F)C[C@H]1C(=O)NC1(C#N)CC1 [Example 103, (2S,4R)-1-Propionyl-4-(2-trifluoromethyl-benzenesulfonyl)-pyrrolidine-2-carboxylic acid (1-cyano-cyclopropyl)-amide] | ≥ 25 | 0.0016
N#CC1(NC(=O)[C@@H]2C[C@@H](S(=O)(=O)c3ccccc3C(F)(F)F)CN2C(=O)C2CCCCC2)CC1 [Example 104, (2S,4R)-1-Cyclohexanecarbonyl-4-(2-trifluoromethyl-benzenesulfonyl)-pyrrolidine-2-carboxylic acid (1-cyano-cyclopropyl)-amide] | ≥ 25 | 0.0002
